In paper PMC7662900, “Development of a Bestatin-SAHA Hybrid with Dual Inhibitory Activity against APN and HDAC” (Molecules, 2020):
“Also recorded” adds a separate entry of the source. Like-named read-outs stand apart in the source and are kept apart here. Each block holds one molecule with its values, some of them ahead of it.

Columns and labels:
RPMI-8226 cells = assay: Western blot analysis of protein levels in RPMI-8226 cells; format: cell-based, human; details: for HDAC1, HDAC6 and HDAC8 protein levels (western blot) / HDAC decreasing effect under cotreatment with proteasome inhibitor bortezomib: 24 h treatment; for acetyl-histone H3 and acetyl-α-tubulin levels (intracellular target engagement) / HDAC1 and HDAC6 protein levels (western blot): 6 h treatment; for HDAC decreasing effect under cotreatment with proteasome inhibitor bortezomib: pre-incubated with 10 nM bortezomib
Experimental: The RPMI-8226 cells were plated in flat-bottom six-well plates and allowed to grow for 12 h, and then treated with compounds or DMSO for a specific time period. Then, the cells were washed twice with cold PBS and lysed in ice-cold RIPA buffer, which comprised 50 mM Tris Base, 150 mM NaCl, 5 mM EDTA, 0.1% (v/v) SDS, 0.5% (v/v) sodium deoxycholate and 1% (v/v) Triton-x-100. Lysates were cleared by centrifugation. Protein concentrations were determined using the BCA assay. Equal amounts of cell extracts were then resolved by SDS-PAGE, transferred to nitrocellulose membrane and probed with HDAC1 antibody, HDAC6 antibody, HDAC8 antibody, acetyl-histone H3 antibody, acetyl-α-tubulin antibody and β-actin antibody, respectively. The membrane was washed twice with TBST buffer before being incubated with secondary antibodies. Images were acquired using a GE ImageQuant LAS 4000.

[1] = molecular target: T1, microsomal APN from porcine kidney microsomes (Sus scrofa, UniProt P15145); assay: In vitro APN inhibitory assay (l-leu-p-nitroanilide substrate); format: biochemical; details: mean ± SD, n ≥ 3
T1 construct: microsomal APN from porcine kidney microsomes (Biocol); purchased Biocol; host or cells: porcine kidney microsomes (tissue-derived)
T1 sequence (P15145 1-963): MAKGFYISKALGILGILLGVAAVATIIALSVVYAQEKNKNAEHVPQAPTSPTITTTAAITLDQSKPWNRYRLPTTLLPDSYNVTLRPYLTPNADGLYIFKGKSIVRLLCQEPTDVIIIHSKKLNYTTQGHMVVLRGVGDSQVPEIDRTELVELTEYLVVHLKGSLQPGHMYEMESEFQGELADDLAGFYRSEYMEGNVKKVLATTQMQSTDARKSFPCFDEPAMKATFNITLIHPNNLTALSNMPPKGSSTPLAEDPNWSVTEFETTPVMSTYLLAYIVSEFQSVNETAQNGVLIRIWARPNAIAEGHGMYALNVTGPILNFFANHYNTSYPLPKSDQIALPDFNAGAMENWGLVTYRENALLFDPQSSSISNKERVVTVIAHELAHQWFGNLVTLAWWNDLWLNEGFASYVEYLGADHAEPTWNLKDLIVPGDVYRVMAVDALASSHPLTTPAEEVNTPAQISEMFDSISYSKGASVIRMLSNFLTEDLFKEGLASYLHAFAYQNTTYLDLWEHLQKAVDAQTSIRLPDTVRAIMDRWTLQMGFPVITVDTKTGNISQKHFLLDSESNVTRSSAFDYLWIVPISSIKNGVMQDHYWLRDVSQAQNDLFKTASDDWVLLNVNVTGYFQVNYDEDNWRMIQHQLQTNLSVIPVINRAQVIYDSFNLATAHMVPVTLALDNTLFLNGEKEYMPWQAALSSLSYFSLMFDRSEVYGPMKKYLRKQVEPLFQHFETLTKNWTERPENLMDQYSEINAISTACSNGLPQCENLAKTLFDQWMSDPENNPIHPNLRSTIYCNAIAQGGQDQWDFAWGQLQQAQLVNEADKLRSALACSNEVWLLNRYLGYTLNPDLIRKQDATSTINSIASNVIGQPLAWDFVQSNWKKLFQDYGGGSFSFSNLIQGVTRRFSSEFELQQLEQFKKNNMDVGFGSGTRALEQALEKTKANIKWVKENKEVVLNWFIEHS
Experimental: The inhibitory activities of target compounds against APN were determined using l-leu-p-nitroanilide as substrate and microsomal APN from porcine kidney microsomes (Biocol) in 50 mM PBS, pH 7.2 as enzyme. Briefly, inhibitors (40 μL), PBS (145 μL), substrate (5 μL) and APN solution (10 μL) were added into 96-well plates. The mixture was incubated at 37 °C for 30 min. […] The inhibition rates were calculated based on the ultraviolet absorption readout of tested wells relative to those of control wells, and the IC50 values were calculated using Prism non-linear curve fitting method.

rat thoracic aorta rings = assay: Ex vivo rat thoracic aorta rings (TARs) assay; format: cell-based; details: for anti-angiogenesis activity (microvessel outgrowth) at 5 μM: compared with bestatin at same concentration; for microvessel outgrowth from thoracic aorta ring: indicated concentrations, treated each day for 5 days
Experimental: Matrigel (100 μL; BD biosciences, NJ) was added into test well of 96-well plates and then allowed to polymerize for 0.5 h at 37 °C. Sprague–Dawley rats that were 4 to 6 weeks old were sacrificed and aortas were harvested. Each aorta was cut into 1 mm slices and embedded in additional 100 μL of Matrigel in 96-well plates. After that, the rings were incubated for 30 min at 37 °C and 5% CO2. Aorta rings were treated with the vehicle (0.5% DMSO) or compounds each day for 5 days and photographed on the sixth day at ×200 magnification. All experiments involving laboratory animals were performed with the approval by the institutional guidelines of Animal Care and Use Committee at Shandong University.

HDAC1 = molecular target: T2, HDAC1 (Homo sapiens, UniProt Q13547); assay: In vitro HDACs inhibitory assay (fluorogenic substrate), HDAC1; format: biochemical
T2 construct: purchased BPS Bioscience
T2 sequence (Q13547 whole entry): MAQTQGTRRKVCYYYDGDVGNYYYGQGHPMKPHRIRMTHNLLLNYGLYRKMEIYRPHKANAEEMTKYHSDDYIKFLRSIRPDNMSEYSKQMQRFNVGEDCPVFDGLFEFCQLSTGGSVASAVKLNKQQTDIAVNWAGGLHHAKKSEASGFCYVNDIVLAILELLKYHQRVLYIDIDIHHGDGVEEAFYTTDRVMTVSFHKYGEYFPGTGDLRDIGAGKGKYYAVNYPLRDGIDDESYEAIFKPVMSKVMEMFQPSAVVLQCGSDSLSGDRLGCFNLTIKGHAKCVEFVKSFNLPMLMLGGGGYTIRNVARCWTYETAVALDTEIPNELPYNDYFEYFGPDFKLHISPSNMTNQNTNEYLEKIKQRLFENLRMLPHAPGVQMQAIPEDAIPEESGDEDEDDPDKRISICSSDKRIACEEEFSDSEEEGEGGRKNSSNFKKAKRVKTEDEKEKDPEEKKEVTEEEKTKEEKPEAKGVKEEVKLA
Experimental: (§1) All the HDAC enzymes were brought from BPS Bioscience. Ten μL of enzyme solution (HDAC1, HDAC6 or HDAC8) was mixed with different concentrations of tested compound (50 μL). The mixture was incubated at 37 °C for 5 min, followed by adding 40 μL fluorogenic substrate (Boc-Lys(acetyl)-AMC for HDAC1 and HDAC6, Boc-Lys(triflouroacetyl)-AMC for HDAC8). After incubation at 37 °C for 30 min, the mixture was quenched by addition of 100 μL of developer containing trypsin and Trichostatin A. Over another incubation at 37 °C for 20 min, fluorescence intensity was measured using a microplate reader at excitation and emission wavelengths of 390 nm and 460 nm, respectively. The inhibition rates were calculated from the fluorescence intensity readout of tested wells relative to those of control wells, and the IC50 values were calculated using Prism non-linear curve fitting method.

HDAC6 = molecular target: T3, HDAC6 (Homo sapiens, UniProt Q9UBN7); assay: In vitro HDACs inhibitory assay (fluorogenic substrate), HDAC6; format: biochemical
T3 construct: purchased BPS Bioscience
T3 sequence (Q9UBN7 1-1215): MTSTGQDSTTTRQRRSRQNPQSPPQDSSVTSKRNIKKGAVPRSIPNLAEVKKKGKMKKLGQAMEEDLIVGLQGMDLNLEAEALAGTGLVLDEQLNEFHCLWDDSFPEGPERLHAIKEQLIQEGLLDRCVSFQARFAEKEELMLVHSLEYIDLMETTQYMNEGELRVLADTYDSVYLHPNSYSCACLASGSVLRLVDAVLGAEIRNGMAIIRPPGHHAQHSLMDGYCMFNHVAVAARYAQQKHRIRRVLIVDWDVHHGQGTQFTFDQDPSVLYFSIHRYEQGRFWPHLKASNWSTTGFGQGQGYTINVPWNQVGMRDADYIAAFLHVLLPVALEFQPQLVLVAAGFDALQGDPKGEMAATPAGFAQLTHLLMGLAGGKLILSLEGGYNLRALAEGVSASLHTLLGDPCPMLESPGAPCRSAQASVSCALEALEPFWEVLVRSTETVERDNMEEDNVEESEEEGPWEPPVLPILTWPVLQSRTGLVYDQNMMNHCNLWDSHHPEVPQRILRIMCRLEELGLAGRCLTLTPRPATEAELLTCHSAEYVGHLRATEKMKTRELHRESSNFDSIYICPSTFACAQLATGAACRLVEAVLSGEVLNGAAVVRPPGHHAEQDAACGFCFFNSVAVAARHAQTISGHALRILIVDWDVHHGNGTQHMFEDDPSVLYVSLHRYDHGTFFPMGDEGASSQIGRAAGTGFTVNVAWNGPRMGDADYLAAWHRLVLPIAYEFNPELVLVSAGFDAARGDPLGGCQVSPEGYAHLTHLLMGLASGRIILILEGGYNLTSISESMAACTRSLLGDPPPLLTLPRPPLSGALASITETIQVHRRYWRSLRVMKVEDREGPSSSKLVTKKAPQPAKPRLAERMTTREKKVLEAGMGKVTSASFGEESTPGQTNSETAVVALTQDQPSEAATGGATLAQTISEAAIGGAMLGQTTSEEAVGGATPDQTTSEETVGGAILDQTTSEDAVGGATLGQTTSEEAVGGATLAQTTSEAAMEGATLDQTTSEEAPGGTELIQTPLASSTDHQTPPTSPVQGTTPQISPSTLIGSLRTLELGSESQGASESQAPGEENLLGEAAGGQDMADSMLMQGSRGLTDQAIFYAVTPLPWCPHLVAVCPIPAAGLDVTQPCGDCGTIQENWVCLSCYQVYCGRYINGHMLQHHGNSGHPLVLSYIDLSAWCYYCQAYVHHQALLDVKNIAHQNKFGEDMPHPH
Experimental: as §1

HDAC8 = molecular target: T4, HDAC8 (Homo sapiens, UniProt Q9BY41); assay: In vitro HDACs inhibitory assay (fluorogenic substrate), HDAC8; format: biochemical
T4 construct: purchased BPS Bioscience
T4 sequence (Q9BY41 1-377): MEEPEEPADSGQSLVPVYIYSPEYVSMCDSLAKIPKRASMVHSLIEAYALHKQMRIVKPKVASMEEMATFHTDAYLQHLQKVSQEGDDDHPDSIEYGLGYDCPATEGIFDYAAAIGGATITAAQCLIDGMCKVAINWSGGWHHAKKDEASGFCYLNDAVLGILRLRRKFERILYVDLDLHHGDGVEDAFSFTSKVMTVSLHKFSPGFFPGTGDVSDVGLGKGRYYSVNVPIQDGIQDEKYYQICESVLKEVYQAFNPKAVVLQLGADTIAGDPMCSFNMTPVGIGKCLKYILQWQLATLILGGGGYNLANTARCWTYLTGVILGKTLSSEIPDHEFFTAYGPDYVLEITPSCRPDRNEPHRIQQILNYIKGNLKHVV
Experimental: as §1

[2] = read-out: Inhibitory Rates at 10 μM, HDAC1
[3] = read-out: Inhibitory Rates at 10 μM, HDAC6
[4] = read-out: Inhibitory Rates at 10 μM, HDAC8

SMILES: CC(C)C[C@H](NC(=O)[C@@H](O)[C@H](N)Cc1ccccc1)C(=O)NCCCCCC(=O)Nc1ccc(NC(=O)CCCCCCC(=O)NO)cc1.O=C(O)C(F)(F)F [P1, N^1-(4-(6-((S)-2-((2S,3R)-3-Amino-2-hydroxy-4-phenylbutanamido)-4-methylpentanamido)hexanamido)phenyl)-N^8-hydroxyoctanediamide trifluoroacetate]
HDAC1, HDAC6 and HDAC8 protein levels (western blot) (RPMI-8226 cells; 1 μM to 4 μM): significantly decrease the levels of HDAC1, HDAC6 and even HDAC8 in a dose-dependent manner | acetyl-histone H3 and acetyl-α-tubulin levels (intracellular target engagement) (RPMI-8226 cells): increased levels of acetyl-histone H3 (the HDAC1 substrate) and acetyl-α-tubulin (the HDAC6 substrate) | HDAC decreasing effect under cotreatment with proteasome inhibitor bortezomib (RPMI-8226 cells): could not reverse | HDAC1 and HDAC6 protein levels (western blot) (RPMI-8226 cells; up to 20 μM): did not lead to HDAC1 or HDAC6 depletion | IC50 [1]: 3430 ± 140 nM | anti-angiogenesis activity (microvessel outgrowth) at 5 μM (rat thoracic aorta rings): superior anti-angiogenesis activities relative to bestatin | microvessel outgrowth from thoracic aorta ring (rat thoracic aorta rings): effectively inhibited the microvessel outgrowth in a dose-dependent manner | IC50 (HDAC1; mean ± SD, n ≥ 3): 30 nM | inhibition at 10 µM (HDAC1; read-out: Inhibitory Rates at 10 μM, HDAC1, 10 μM): > 90% | IC50 (HDAC6; mean ± SD, n ≥ 3): 11.5 nM | inhibition at 10 µM (HDAC6; read-out: Inhibitory Rates at 10 μM, HDAC6, 10 μM): > 90% | IC50 (HDAC8; mean ± SD, n ≥ 3): 694 nM | inhibition at 10 µM (HDAC8; read-out: Inhibitory Rates at 10 μM, HDAC8, 10 μM): > 90%

SMILES: CC(C)C[C@H](NC(=O)[C@@H](O)[C@H](N)Cc1ccccc1)C(=O)NCCOCCOCCNC(=O)c1cccc(C(=O)NO)c1.O=C(O)C(F)(F)F [P2, N^1-((11S,14S,15R)-15-Amino-14-hydroxy-11-isobutyl-10,13-dioxo-16-phenyl-3,6-dioxa-9,12-diazahexadecyl)-N^3-hydroxyisophthalamide trifluoroacetate]
IC50 [1]: 1670 ± 30 nM | anti-angiogenesis activity (microvessel outgrowth) at 5 μM (rat thoracic aorta rings): superior anti-angiogenesis activities relative to bestatin; also recorded: almost completely inhibit the microvessel outgrowth | microvessel outgrowth from thoracic aorta ring (rat thoracic aorta rings): effectively inhibited the microvessel outgrowth in a dose-dependent manner | inhibition at 10 µM (HDAC1; [2]): 66% | inhibition at 10 µM (HDAC6; [3]): 76% | inhibition at 10 µM (HDAC8; [4]): 64%

IC50 [1]: 2650 ± 160 nM | inhibition at 10 µM (HDAC1; [2]): 67% | inhibition at 10 µM (HDAC6; [3]): 71% | inhibition at 10 µM (HDAC8; [4]): 51%
SMILES: CC(C)C[C@H](NC(=O)[C@@H](O)[C@H](N)Cc1ccccc1)C(=O)NCCOCCOCC(=O)Nc1cccc(C(=O)NO)c1 [P3, 3-((11S,14S,15R)-15-Amino-14-hydroxy-11-isobutyl-10,13-dioxo-16-phenyl-3,6-dioxa-9,12-diazahexadecanamido)-N-hydroxybenzamide]
anti-angiogenesis activity (microvessel outgrowth) at 5 μM (rat thoracic aorta rings): superior anti-angiogenesis activities relative to bestatin | microvessel outgrowth from thoracic aorta ring (rat thoracic aorta rings): effectively inhibited the microvessel outgrowth in a dose-dependent manner

SMILES: O=C(CCCCCCC(=O)Nc1ccccc1)NO [SAHA]
HDAC1, HDAC6 and HDAC8 protein levels (western blot) (RPMI-8226 cells; 5 μM): effectively lead to the downregulation of HDAC1, HDAC6 and HDAC8 | acetyl-histone H3 and acetyl-α-tubulin levels (intracellular target engagement) (RPMI-8226 cells): potently inhibited the intracellular HDAC | HDAC1 and HDAC6 protein levels (western blot) (RPMI-8226 cells; indicated concentrations): without influencing the levels of HDAC1 and HDAC6 | HDAC decreasing effect under cotreatment with proteasome inhibitor bortezomib (RPMI-8226 cells): could not reverse
